{"source": "paper PMC9500072", "about": "“Topical application of an irreversible small molecule inhibitor of lysyl oxidases ameliorates skin scarring and fibrosis” (Nature Communications, 2022)", "key": {"[1]": {"system": "primary human fibroblasts", "assay": "Cell viability MTS assay", "assay_type": "cell-based", "method": "Cell proliferation was measured using a standard 3-(4,5-dimethylthiazol-2-yl)-5-(3-carboxymethoxypheny1)-2-(4-sulfophenyl)-2H-tetrazolium, inner salt (MTS) assay (Cell Titer 96® Aqueous One Solution Cell Proliferation Assay, Promega, Australia) as per the manufacturer’s protocol. Briefly, 2500 primary scar fibroblasts below passage eight were seeded in each well of 96-well plates. The cells then exposed to 0, 1, 2.5, 5, 10, 25, 50, and 100 µM concentrations of PXS-4787 in cell culture media (DMEM-Glutamax™ supplemented with 10% Fetal Bovine Serum and 1% Penicillin/ Streptomycin, Life technologies, USA) for 24, 48 and 72 h. MTS solution (20 µL) was added in each well and incubated for 3.5 h in a humidified chamber at 37 °C and 5% CO2. The absorbance recorded on a UV–visible spectrophotometer (Enspire Multimode plate reader, PerkinElmer®) at 490 nanometers."}, "[2]": {"assay": "LeadProfilingScreen, Eurofins CEREP Panlabs, 68 assays", "assay_type": "binding", "settings": "test concentration 10 µM"}, "Adrenergic α1D": {"target": "Adrenergic α1D (Homo sapiens, UniProt P25100)", "sequence (P25100 whole entry)": "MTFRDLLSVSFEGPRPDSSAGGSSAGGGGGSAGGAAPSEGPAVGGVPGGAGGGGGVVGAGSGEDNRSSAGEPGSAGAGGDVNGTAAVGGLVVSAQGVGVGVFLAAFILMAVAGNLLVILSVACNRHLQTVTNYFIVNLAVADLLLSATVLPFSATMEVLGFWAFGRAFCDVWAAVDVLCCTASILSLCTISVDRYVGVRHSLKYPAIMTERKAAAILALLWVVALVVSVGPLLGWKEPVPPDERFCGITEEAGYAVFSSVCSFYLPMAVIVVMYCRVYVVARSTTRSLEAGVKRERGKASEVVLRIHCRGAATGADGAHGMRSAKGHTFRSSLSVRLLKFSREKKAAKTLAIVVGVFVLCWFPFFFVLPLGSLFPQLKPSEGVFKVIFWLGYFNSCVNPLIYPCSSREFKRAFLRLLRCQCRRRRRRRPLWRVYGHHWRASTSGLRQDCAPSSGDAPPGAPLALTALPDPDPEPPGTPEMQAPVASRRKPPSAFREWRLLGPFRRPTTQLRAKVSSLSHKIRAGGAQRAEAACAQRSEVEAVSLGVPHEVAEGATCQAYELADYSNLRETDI", "assay": "Eurofins panel 203400", "assay_type": "binding"}, "Bradykinin B2": {"target": "Bradykinin B2 (Homo sapiens, UniProt P30411)", "sequence (P30411 whole entry)": "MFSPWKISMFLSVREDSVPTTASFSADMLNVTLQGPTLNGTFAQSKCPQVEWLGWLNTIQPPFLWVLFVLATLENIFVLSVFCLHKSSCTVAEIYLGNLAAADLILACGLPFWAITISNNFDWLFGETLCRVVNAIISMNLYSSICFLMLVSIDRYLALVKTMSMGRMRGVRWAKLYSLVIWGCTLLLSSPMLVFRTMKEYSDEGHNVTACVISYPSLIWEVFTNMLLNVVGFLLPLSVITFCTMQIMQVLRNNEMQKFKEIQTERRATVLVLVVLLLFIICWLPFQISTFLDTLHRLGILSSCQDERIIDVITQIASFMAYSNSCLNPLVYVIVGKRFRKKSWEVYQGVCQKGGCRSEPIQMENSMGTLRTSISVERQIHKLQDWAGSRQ", "assay": "Eurofins panel 212620", "assay_type": "binding"}, "Dopamine D3": {"target": "Dopamine D3 (Homo sapiens, UniProt P35462)", "sequence (P35462 whole entry)": "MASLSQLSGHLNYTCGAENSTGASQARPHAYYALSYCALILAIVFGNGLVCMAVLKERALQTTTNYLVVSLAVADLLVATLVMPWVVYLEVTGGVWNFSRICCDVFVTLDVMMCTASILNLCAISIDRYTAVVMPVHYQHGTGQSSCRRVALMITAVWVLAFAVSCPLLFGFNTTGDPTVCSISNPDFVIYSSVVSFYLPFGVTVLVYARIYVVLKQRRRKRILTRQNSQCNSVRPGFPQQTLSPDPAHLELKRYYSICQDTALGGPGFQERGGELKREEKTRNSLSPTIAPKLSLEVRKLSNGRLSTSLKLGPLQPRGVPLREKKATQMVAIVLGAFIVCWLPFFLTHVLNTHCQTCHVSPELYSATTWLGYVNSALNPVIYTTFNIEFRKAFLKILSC", "assay": "Eurofins panel 219800", "assay_type": "binding"}, "Melatonin MT1": {"target": "Melatonin MT1 (Homo sapiens, UniProt P48039)", "sequence (P48039 whole entry)": "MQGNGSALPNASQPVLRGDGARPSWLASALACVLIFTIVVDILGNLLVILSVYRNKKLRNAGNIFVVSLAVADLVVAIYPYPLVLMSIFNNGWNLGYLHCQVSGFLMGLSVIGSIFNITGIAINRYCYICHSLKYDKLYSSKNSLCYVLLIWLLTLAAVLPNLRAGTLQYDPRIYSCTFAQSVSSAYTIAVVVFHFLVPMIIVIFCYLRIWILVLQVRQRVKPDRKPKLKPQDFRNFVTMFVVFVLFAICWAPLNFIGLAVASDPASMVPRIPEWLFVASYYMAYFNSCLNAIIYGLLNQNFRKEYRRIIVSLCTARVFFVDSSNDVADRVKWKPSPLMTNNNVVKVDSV", "assay": "Eurofins panel 251600", "assay_type": "binding"}, "Neuropeptide Y Y1": {"target": "Neuropeptide Y Y1 (Homo sapiens, UniProt P25929)", "sequence (P25929 whole entry)": "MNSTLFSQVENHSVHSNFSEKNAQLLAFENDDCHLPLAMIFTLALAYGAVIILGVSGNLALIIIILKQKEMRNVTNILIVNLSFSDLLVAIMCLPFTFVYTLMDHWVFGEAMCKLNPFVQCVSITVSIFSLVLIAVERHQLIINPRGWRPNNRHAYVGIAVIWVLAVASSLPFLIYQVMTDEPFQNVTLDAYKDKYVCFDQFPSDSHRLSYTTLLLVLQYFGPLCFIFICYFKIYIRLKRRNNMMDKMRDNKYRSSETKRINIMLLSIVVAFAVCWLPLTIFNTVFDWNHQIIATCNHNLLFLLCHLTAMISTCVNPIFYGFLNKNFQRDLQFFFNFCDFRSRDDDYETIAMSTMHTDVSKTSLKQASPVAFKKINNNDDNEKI", "assay": "Eurofins panel 257010", "assay_type": "binding"}, "hERG potassium channel": {"target": "hERG potassium channel (Homo sapiens, UniProt Q12809)", "sequence (Q12809 whole entry)": "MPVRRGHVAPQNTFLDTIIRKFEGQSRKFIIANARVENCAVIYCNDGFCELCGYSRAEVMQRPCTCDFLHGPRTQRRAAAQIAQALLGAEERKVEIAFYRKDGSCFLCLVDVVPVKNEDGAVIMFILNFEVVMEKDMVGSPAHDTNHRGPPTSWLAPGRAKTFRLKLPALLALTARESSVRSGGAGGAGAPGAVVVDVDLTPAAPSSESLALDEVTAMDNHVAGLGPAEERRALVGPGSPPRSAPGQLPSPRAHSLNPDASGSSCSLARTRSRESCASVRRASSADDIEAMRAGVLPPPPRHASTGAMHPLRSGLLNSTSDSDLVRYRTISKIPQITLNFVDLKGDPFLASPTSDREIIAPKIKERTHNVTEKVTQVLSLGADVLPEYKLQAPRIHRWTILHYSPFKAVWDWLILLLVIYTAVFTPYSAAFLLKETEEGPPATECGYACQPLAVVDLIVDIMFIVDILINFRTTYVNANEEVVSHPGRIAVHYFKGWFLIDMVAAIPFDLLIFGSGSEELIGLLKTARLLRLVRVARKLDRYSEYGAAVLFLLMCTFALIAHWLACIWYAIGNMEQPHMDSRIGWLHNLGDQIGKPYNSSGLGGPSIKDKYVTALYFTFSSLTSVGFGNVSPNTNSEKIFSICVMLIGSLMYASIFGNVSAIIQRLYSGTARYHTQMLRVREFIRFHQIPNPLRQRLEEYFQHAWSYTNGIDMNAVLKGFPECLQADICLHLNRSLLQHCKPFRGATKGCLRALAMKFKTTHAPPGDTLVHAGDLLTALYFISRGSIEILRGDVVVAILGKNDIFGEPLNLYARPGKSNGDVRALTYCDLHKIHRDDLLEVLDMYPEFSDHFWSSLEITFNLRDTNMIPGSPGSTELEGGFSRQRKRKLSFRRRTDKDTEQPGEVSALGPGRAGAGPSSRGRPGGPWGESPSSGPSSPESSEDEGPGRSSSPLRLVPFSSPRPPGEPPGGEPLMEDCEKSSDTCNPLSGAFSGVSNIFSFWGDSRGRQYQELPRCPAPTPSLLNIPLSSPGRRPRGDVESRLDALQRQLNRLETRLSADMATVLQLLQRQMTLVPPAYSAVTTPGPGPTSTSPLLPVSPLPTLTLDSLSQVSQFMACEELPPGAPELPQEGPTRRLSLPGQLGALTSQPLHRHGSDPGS", "assay": "Eurofins panel 265900", "assay_type": "binding"}, "Thyroid Hormone": {"system": "Thyroid Hormone", "assay": "Eurofins panel 285900", "assay_type": "binding, rat", "settings": "10 µM"}, "Transporter, GABA": {"target": "Transporter, GABA (Rattus norvegicus, UniProt P23978)", "assay": "Eurofins panel 226400", "assay_type": "binding"}, "Caco-2 permeability": {"assay": "Caco-2 permeability", "assay_type": "in vitro ADME", "settings": "human, Caco-2", "method": "(§1) The penetration of PXS-6302 across a monolayer of cells was tested using Caco-2 or MDCKII cells transfected with P-glycoprotein (Pgp)."}, "Caco-2 cells": {"system": "Caco-2 cells", "assay": "Caco-2 permeability", "assay_type": "in vitro ADME", "method": "as §1"}, "[3]": {"system": "lysyl oxidase activity in the skin", "assay": "Rat pharmacokinetic-pharmacodynamic model, skin lysyl oxidase activity", "assay_type": "in vivo", "settings": "for skin LOX activity S/N: individual animals; for inhibition of the specific lysyl oxidase signal: after 24 h", "method": "PXS-6302 was formulated as an oil in water cream of different concentrations (0, 0.3, 1, 10%) and applied to a shaved area on the back of a rat (500 mg cream applied to 16 cm^2). After 24 h animals were sacrificed, the concentration of PXS-6302 in the skin was measured and the lysyl oxidase activity determined.\nFig. 5 Pharmacokinetic-pharmacodynamic measurement of target engagement in rat skin in vivo. […] Activity was measured 24 h after last topical application. Noise in these assays was determined by measuring background fluorescent changes in the presence of a high (>300 μM) concentration of BAPN to block all lysyl oxidase activity in the presence of other amine oxidase inhibitors (n = 3 per group). The signal (activity in the absence of BAPN) over noise (signal of the same extract in the presence of BAPN). Statistical analysis was performed with one-way ANOVA with Tukey’s method for multiple comparisons. *p < 0.05, **p < 0.01, ***p < 0.001 and ****p < 0.0001. Source data are provided as a Source Data file. […]\nPXS-6302 was formulated as an oil in water cream of different concentrations (0, 0.3, 1, 10%) and applied to a shaved area on the back of an adult rat (500 mg cream applied to 16 cm^2 skin surface area). After 24 h animals were euthanased. For the detection of lysyl oxidase activity in the skin, epidermal and dermal layers of the skin were dissected, pre-cooled with liquid nitrogen and pulverized. Samples were washed by homogenization with ice-cold wash buffer (0.15 M NaCl, 50 mM sodium borate, pH 8.0 with 0.25 mM PMSF and 1 µL/mL bovine aprotinin as protease inhibitors) at 100 µL/mg, centrifuged at 10,000 × g for 10 min at 4 °C and supernatant discarded. After the final washing step, the pellet was resuspended in extraction buffer (6 M urea, 50 mM sodium borate, pH 8.2 with 0.25 mM PMSF and 1 µL/mL aprotinin as protease inhibitors) with ratio of buffer volume to tissue weight at 4:1. After a 3 h incubation at 4 °C, the mixture was diluted 1:2 with assay buffer containing 50 mM sodium borate (pH 8.2), centrifuged at 20,000 × g for 20 min at 4 °C. The collected supernatant was spiked with pargyline hydrochloride and mofegiline hydrochloride at final concentrations of 0.5 mM and 1 µM, respectively, to inhibit amine oxidases. Lysyl oxidase activity was measured as previously described. The concentration of PXS-6302 in the skin was also measured in the same samples using LCMSMS as described for Franz cell diffusion assay."}, "[4]": {"target": "Protein Tyrosine Kinase, LCK (Homo sapiens, UniProt P06239)", "sequence (P06239 whole entry)": "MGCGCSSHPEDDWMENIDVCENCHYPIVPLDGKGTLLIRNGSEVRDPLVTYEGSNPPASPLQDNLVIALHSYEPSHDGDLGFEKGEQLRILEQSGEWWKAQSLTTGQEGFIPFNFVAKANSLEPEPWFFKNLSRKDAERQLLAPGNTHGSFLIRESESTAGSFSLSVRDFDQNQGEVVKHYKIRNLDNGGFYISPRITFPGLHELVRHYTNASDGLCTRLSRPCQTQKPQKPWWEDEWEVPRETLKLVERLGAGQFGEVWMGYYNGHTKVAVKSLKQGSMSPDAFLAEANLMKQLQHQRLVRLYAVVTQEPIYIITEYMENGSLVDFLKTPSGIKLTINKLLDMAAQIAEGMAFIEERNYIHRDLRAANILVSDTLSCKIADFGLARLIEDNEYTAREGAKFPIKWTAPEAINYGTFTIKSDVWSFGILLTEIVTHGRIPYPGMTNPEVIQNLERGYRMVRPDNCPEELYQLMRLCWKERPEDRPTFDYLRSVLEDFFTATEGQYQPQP", "assay": "Eurofins panel 176020", "assay_type": "biochemical"}, "[5]": {"target": "Cholecystokinin CCK1 (CCKA) (Homo sapiens, UniProt P32238)", "sequence (P32238 whole entry)": "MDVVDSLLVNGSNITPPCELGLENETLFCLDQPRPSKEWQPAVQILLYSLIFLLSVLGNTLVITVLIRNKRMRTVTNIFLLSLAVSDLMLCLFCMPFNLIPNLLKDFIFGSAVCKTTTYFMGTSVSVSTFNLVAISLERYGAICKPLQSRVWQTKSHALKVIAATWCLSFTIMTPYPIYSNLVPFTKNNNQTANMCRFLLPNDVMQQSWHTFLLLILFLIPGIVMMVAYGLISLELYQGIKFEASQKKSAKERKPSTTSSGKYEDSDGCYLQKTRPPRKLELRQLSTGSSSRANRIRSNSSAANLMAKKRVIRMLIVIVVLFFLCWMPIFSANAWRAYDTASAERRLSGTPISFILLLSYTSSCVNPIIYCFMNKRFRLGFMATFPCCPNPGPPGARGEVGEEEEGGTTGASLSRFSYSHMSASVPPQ", "assay": "Eurofins panel 218030", "assay_type": "binding"}, "Potassium Channel [KA]": {"system": "Potassium Channel [KA]", "assay": "Eurofins panel 265510", "assay_type": "binding, rat", "settings": "30 µM"}}, "note": "Several values for one entry are separate records, joined by “and”; a condition that tells them apart may be missing. Identical values can stand only once. Entries after “also recorded” stand apart in the source; their conditions may differ.", "data": [{"compound": "NC/C=C(\\F)CS(=O)(=O)c1ccccc1", "note": "[PXS-4787]", "values": [{"measurement": "fibroblast cell viability", "setting": "[1]; 0–100 µM, 24, 48 and 72 h", "result": "No significant difference in viability; also recorded: no effect"}, {"measurement": "Supp Fig. 1 cell viability MTS reading (quantity not given)", "setting": "[1]; 1μM, time 0 hrs", "result": "0.5417 and 0.513 and 0.509"}, {"measurement": "Supp Fig. 1 cell viability MTS reading (quantity not given)", "setting": "[1]; 1μM, time 24 hrs", "result": "0.5067 and 0.503 and 0.5037"}, {"measurement": "Supp Fig. 1 cell viability MTS reading (quantity not given)", "setting": "[1]; 1μM, time 48 hrs", "result": "0.5417 and 0.513 and 0.509"}, {"measurement": "Supp Fig. 1 cell viability MTS reading (quantity not given)", "setting": "[1]; 1μM, time 72 hrs", "result": "0.4673 and 0.4607 and 0.4573"}, {"measurement": "Supp Fig. 1 cell viability MTS reading (quantity not given)", "setting": "[1]; 5μM, time 0 hrs", "result": "0.505 and 0.4817 and 0.4813"}, {"measurement": "Supp Fig. 1 cell viability MTS reading (quantity not given)", "setting": "[1]; 5μM, time 24 hrs", "result": "0.4947 and 0.4857 and 0.4823"}, {"measurement": "Supp Fig. 1 cell viability MTS reading (quantity not given)", "setting": "[1]; 5μM, time 48 hrs", "result": "0.505 and 0.4817 and 0.4813"}, {"measurement": "Supp Fig. 1 cell viability MTS reading (quantity not given)", "setting": "[1]; 5μM, time 72 hrs", "result": "0.461 and 0.4743 and 0.4797"}, {"measurement": "Supp Fig. 1 cell viability MTS reading (quantity not given)", "setting": "[1]; 10μM, time 0 hrs", "result": "0.5527 and 0.5103 and 0.5143"}, {"measurement": "Supp Fig. 1 cell viability MTS reading (quantity not given)", "setting": "[1]; 10μM, time 24 hrs", "result": "0.533 and 0.5197 and 0.5183"}, {"measurement": "Supp Fig. 1 cell viability MTS reading (quantity not given)", "setting": "[1]; 10μM, time 48 hrs", "result": "0.5527 and 0.5103 and 0.5143"}, {"measurement": "Supp Fig. 1 cell viability MTS reading (quantity not given)", "setting": "[1]; 10μM, time 72 hrs", "result": "0.428 and 0.481 and 0.4927"}, {"measurement": "Supp Fig. 1 cell viability MTS reading (quantity not given)", "setting": "[1]; 25μM, time 0 hrs", "result": "0.569 and 0.5407 and 0.5403"}, {"measurement": "Supp Fig. 1 cell viability MTS reading (quantity not given)", "setting": "[1]; 25μM, time 24 hrs", "result": "0.5363 and 0.517 and 0.513"}, {"measurement": "Supp Fig. 1 cell viability MTS reading (quantity not given)", "setting": "[1]; 25μM, time 48 hrs", "result": "0.569 and 0.5407 and 0.5403"}, {"measurement": "Supp Fig. 1 cell viability MTS reading (quantity not given)", "setting": "[1]; 25μM, time 72 hrs", "result": "0.45 and 0.5113 and 0.529"}, {"measurement": "Supp Fig. 1 cell viability MTS reading (quantity not given)", "setting": "[1]; 50μM, time 0 hrs", "result": "0.5427 and 0.5253 and 0.526"}, {"measurement": "Supp Fig. 1 cell viability MTS reading (quantity not given)", "setting": "[1]; 50μM, time 24 hrs", "result": "0.4977 and 0.5027 and 0.5057"}, {"measurement": "Supp Fig. 1 cell viability MTS reading (quantity not given)", "setting": "[1]; 50μM, time 48 hrs", "result": "0.5427 and 0.5253 and 0.526"}, {"measurement": "Supp Fig. 1 cell viability MTS reading (quantity not given)", "setting": "[1]; 50μM, time 72 hrs", "result": "0.5073 and 0.527 and 0.526"}, {"measurement": "Supp Fig. 1 cell viability MTS reading (quantity not given)", "setting": "[1]; 100μM, time 0 hrs", "result": "0.478 and 0.466 and 0.467"}, {"measurement": "Supp Fig. 1 cell viability MTS reading (quantity not given)", "setting": "[1]; 100μM, time 24 hrs", "result": "0.468 and 0.457 and 0.456"}, {"measurement": "Supp Fig. 1 cell viability MTS reading (quantity not given)", "setting": "[1]; 100μM, time 48 hrs", "result": "0.461 and 0.4477 and 0.449"}, {"measurement": "Supp Fig. 1 cell viability MTS reading (quantity not given)", "setting": "[1]; 100μM, time 72 hrs", "result": "0.4837 and 0.4977 and 0.499"}, {"measurement": "profile in broad panel of macromolecular targets", "setting": "[2]", "result": "clean"}, {"measurement": "inhibition at 10 µM", "setting": "Adrenergic α1D", "result": -1, "unit": "%"}, {"measurement": "inhibition at 10 µM", "setting": "Bradykinin B2", "result": 5, "unit": "%"}, {"measurement": "inhibition at 10 µM", "setting": "Dopamine D3", "result": 0, "unit": "%"}, {"measurement": "inhibition at 10 µM", "setting": "Melatonin MT1", "result": -2, "unit": "%"}, {"measurement": "inhibition at 10 µM", "setting": "Neuropeptide Y Y1", "result": 0, "unit": "%"}, {"measurement": "inhibition at 10 µM", "setting": "hERG potassium channel", "result": 9, "unit": "%"}, {"measurement": "% Inh.", "setting": "Thyroid Hormone", "result": 0, "unit": "%"}, {"measurement": "inhibition at 10 µM", "setting": "Transporter, GABA", "result": 0, "unit": "%"}]}, {"compound": "NC/C=C(\\F)C(F)(F)S(=O)(=O)c1ccccc1", "note": "[PXS-6302]", "values": [{"measurement": "efflux ratio", "setting": "Caco-2 permeability; read-out: CaCo2 efflux ratio", "result": 0.8}, {"measurement": "Papp", "setting": "Caco-2 permeability; read-out: CaCo2 permeability Papp", "result": 34, "unit": "×10⁻⁶ cm/s"}, {"measurement": "CaCo2 permeability (class in words)", "setting": "Caco-2 cells", "result": "High and high permeability"}, {"measurement": "lysyl oxidase activity after repeat dosing", "setting": "[3]; 0.5, 1, 3% cream once daily 5 days", "result": "strongly reduced"}, {"measurement": "lysyl oxidase activity, % of pre-drug activity", "setting": "[3]; 1% cream, 48 h after the last dose", "result": 26, "unit": "%"}, {"measurement": "skin LOX activity S/N", "setting": "[3]; repeat application 0.5% 400mg", "result": "1.603 and 1.3949 and 1.286 and 1.15"}, {"measurement": "skin LOX activity S/N", "setting": "[3]; repeat application 1% 400mg", "result": "1.251 and 1.262 (2×) and 1.26"}, {"measurement": "skin LOX activity S/N", "setting": "[3]; repeat application 3% 400mg", "result": "1.108 and 1.192 and 1.079 and 1.121"}, {"measurement": "skin LOX activity S/N", "setting": "[3]; single application 0.3% 500mg", "result": "1.245 and 1.84 and 2.264"}, {"measurement": "skin LOX activity S/N", "setting": "[3]; single application 1% 500mg", "result": "1.893 and 1.116 and 1.337"}, {"measurement": "skin LOX activity S/N", "setting": "[3]; single application 10% 500mg", "result": "1.274 and 1.089 and 1.033"}, {"measurement": "inhibition of the specific lysyl oxidase signal", "setting": "[3]; single dose 1% cream", "result": 67, "unit": "%"}, {"measurement": "inhibition of the specific lysyl oxidase signal", "setting": "[3]; single dose 10% cream", "result": 98, "unit": "%"}, {"measurement": "inhibition at 30 µM", "setting": "[4]", "result": 1, "unit": "%"}, {"measurement": "inhibition at 30 µM", "setting": "[5]", "result": 1, "unit": "%"}, {"measurement": "% Inh.", "setting": "Potassium Channel [KA]", "result": 2, "unit": "%"}]}]}
